Assay results taken from patent US20130274174A1, “THERAPEUTIC COMBINATION OF DAPTOMYCIN AND PROTEIN SYNTHESIS INHIBITOR ANTIBIOTIC, AND METHODS OF USE” (priority 2011, published 2013).
Converted amounts (≈) assume the structure as drawn. “Also recorded” adds a separate entry of the source. Where two headings read alike, the source gives them in different places.

Columns and labels:
[1] = tested on: S. aureus and enterococci; settings: Entenza et al. 2010; cited from earlier work
[2] = tested on: S. aureus; settings: Locke et al. 2009; cited from earlier work
[3] = tested on: S. aureus; settings: co-selection with a subinhibitory concentration; Berti et al. 2012; cited from earlier work
[4] = tested on: S. aureus MW2 (NRS123); test: microbe, parasite or virus in culture; format: cell-based, Staphylococcus aureus; settings: for MIC: Staphylococcus aureus
Experimental: S. aureus strains MW2 (NARSA collection clinical MRSA isolate, NRS123) and ATCC 33591 (MRSA strain from the American Type Culture Collection) were cultured on Mueller-Hinton II cation adjusted (MHA) medium in 90×90 mm square petri dishes. MHA containing ¼ of the MIC value of TR-700, TR-705, LZD, TIA, CLI, TET, or VAN, TMP/SMX throughout the plate and a continuous linear gradient of DAP across the plate was used to passage MW2. ATCC 33591 was passaged with ¼ of the MIC of a subset of these drugs (TR-700, TMP/SMX, and VAN). A DAP-only control passage group was included for both strains. DAP gradients were created by pouring two layers of media as previously described (Bryson, V., et al. 1952. Microbial selection. Science 116:45-51; Locke, J. B., et al., 2009. Antimicrob. Agents Chemother. 53:5265-5274). Following each passage the leading edge of growth (i.e., most resistant cells) was resuspended in phosphate buffered saline (PBS) to an absorbance of 0.30 OD600 and a 100 μl aliquot containing ˜3.0×10^7 CFU (colony-forming units) was spread on to the proceeding passage plate. The starting maximal DAP concentration was 2 μg/ml and was increased in two-fold increments when the leading edge of growth surpassed the half way point on the plate. A glycerol stock was made from the total cell population for each culture condition for each passage. Thirty serial passages were completed for each treatment group.

[5] = NRS123, passage 5, selection group DAP
[6] = NRS123, passage 5, selection group DAP + CLI
[7] = NRS123, passage 5, selection group DAP + LZD
[8] = NRS123, passage 5, selection group DAP + TET
[9] = NRS123, passage 5, selection group DAP + TIA
[10] = NRS123, passage 5, selection group DAP + TMP/SMX
[11] = NRS123, passage 5, selection group DAP + TR-700
[12] = NRS123, passage 5, selection group DAP + TR-705
[13] = NRS123, passage 5, selection group DAP + VAN
[14] = NRS123, passage 10, selection group DAP
[15] = NRS123, passage 10, selection group DAP + CLI
[16] = NRS123, passage 10, selection group DAP + LZD
[17] = NRS123, passage 10, selection group DAP + TET
[18] = NRS123, passage 10, selection group DAP + TIA
[19] = NRS123, passage 10, selection group DAP + TMP/SMX
[20] = NRS123, passage 10, selection group DAP + TR-700
[21] = NRS123, passage 10, selection group DAP + TR-705
[22] = NRS123, passage 10, selection group DAP + VAN
[23] = NRS123, passage 15, selection group DAP
[24] = NRS123, passage 15, selection group DAP + CLI
[25] = NRS123, passage 15, selection group DAP + LZD
[26] = NRS123, passage 15, selection group DAP + TET
[27] = NRS123, passage 15, selection group DAP + TIA
[28] = NRS123, passage 15, selection group DAP + TMP/SMX
[29] = NRS123, passage 15, selection group DAP + TR-700
[30] = NRS123, passage 15, selection group DAP + TR-705
[31] = NRS123, passage 15, selection group DAP + VAN
[32] = NRS123, passage 20, selection group DAP
[33] = NRS123, passage 20, selection group DAP + CLI
[34] = NRS123, passage 20, selection group DAP + LZD
[35] = NRS123, passage 20, selection group DAP + TET
[36] = NRS123, passage 20, selection group DAP + TIA
[37] = NRS123, passage 20, selection group DAP + TMP/SMX
[38] = NRS123, passage 20, selection group DAP + TR-700
[39] = NRS123, passage 20, selection group DAP + TR-705
[40] = NRS123, passage 20, selection group DAP + VAN
[41] = NRS123, passage 25, selection group DAP
[42] = NRS123, passage 25, selection group DAP + CLI
[43] = NRS123, passage 25, selection group DAP + LZD
[44] = NRS123, passage 25, selection group DAP + TET
[45] = NRS123, passage 25, selection group DAP + TIA
[46] = NRS123, passage 25, selection group DAP + TMP/SMX
[47] = NRS123, passage 25, selection group DAP + TR-700
[48] = NRS123, passage 25, selection group DAP + TR-705
[49] = NRS123, passage 25, selection group DAP + VAN
[50] = NRS123, passage 30, selection group DAP
[51] = NRS123, passage 30, selection group DAP + CLI
[52] = NRS123, passage 30, selection group DAP + LZD
[53] = NRS123, passage 30, selection group DAP + TET
[54] = NRS123, passage 30, selection group DAP + TIA
[55] = NRS123, passage 30, selection group DAP + TMP/SMX
[56] = NRS123, passage 30, selection group DAP + TR-700
[57] = NRS123, passage 30, selection group DAP + TR-705
[58] = NRS123, passage 30, selection group DAP + VAN
[59] = NRS123, read-out: DAP MIC by the end of the experiment (selection of DAP^ns strains), MW2, passaged with DAP alone or with co-selecting agent at ¼ MIC, CLSI breakpoint

For Gentamicin, the “increase of MIC in parallel to the increase in the daptomycin MIC” value [1] is listed as “two-fold” and the “prevention of the emergence of daptomycin resistance” value [1] is listed as “unable to prevent the emergence of daptomycin resistance”.
For CC(=O)NC[C@H]1CN(c2ccc(N3CCOCC3)c(F)c2)C(=O)O1 [LZD, linezolid], the “S. aureus mutation frequency higher than for TR-700” value [2] is listed as over 10 fold, the “effect on preventing the emergence of DAP^ns S. aureus” value [3] is listed as “did not have any effect on preventing the emergence of DAP^ns S. aureus” and the MIC ([4]; NRS123, passage 0, NRS123 WT) is listed as 2 µg/mL (≈ 5.93 µM). It also gave an MIC [4, 5] of 2 µg/mL (≈ 5.93 µM), an MIC [4, 6] of 2 µg/mL and an MIC [4, 7] of 2 µg/mL. It also gave an MIC [4, 8] of 2 µg/mL, an MIC [4, 9] of 2 µg/mL and an MIC [4, 10] of 1 µg/mL. It also gave an MIC [4, 11] of 2 µg/mL, an MIC [4, 12] of 2 µg/mL and an MIC [4, 13] of 1 µg/mL. For the same molecule, the MIC [4, 14] was 2 µg/mL (≈ 5.93 µM), the MIC [4, 15] was 2 µg/mL and the MIC [4, 16] was 2 µg/mL. For the same molecule, the MIC [4, 17] was 2 µg/mL, the MIC [4, 18] was 2 µg/mL and the MIC [4, 19] was 2 µg/mL. It also gave an MIC [4, 20] of 2 µg/mL, an MIC [4, 21] of 2 µg/mL and an MIC [4, 22] of 1 µg/mL. For the same molecule, the MIC [4, 23] was 1 µg/mL (≈ 2.96 µM), the MIC [4, 24] was 2 µg/mL and the MIC [4, 25] was 2 µg/mL. The MIC [4, 26] was 1 µg/mL, the MIC [4, 27] was 2 µg/mL and the MIC [4, 28] was 2 µg/mL. It also gave an MIC [4, 29] of 2 µg/mL, an MIC [4, 30] of 2 µg/mL and an MIC [4, 31] of 1 µg/mL. For the same molecule, the MIC [4, 32] was 2 µg/mL (≈ 5.93 µM), the MIC [4, 33] was 2 µg/mL and the MIC [4, 34] was 2 µg/mL. The MIC [4, 35] was 1 µg/mL, the MIC [4, 36] was 2 µg/mL and the MIC [4, 37] was 2 µg/mL. For the same molecule, the MIC [4, 38] was 2 µg/mL, the MIC [4, 39] was 2 µg/mL and the MIC [4, 40] was 1 µg/mL. The MIC [4, 41] was 1 µg/mL (≈ 2.96 µM), the MIC [4, 42] was 2 µg/mL and the MIC [4, 43] was 1 µg/mL. For the same molecule, the MIC [4, 44] was 1 µg/mL, the MIC [4, 45] was 2 µg/mL and the MIC [4, 46] was 2 µg/mL. For the same molecule, the MIC [4, 47] was 2 µg/mL, the MIC [4, 48] was 2 µg/mL and the MIC [4, 49] was 1 µg/mL. For the same molecule, the MIC [4, 50] was 1 µg/mL (≈ 2.96 µM), the MIC [4, 51] was 2 µg/mL and the MIC [4, 52] was 2 µg/mL. The MIC [4, 53] was 1 µg/mL, the MIC [4, 54] was 2 µg/mL and the MIC [4, 55] was 2 µg/mL. It also gave an MIC [4, 56] of 2 µg/mL, an MIC [4, 57] of 2 µg/mL and an MIC [4, 58] of 2 µg/mL. For the same molecule, the MIC [4, 59] was over 1 µg/mL, the “effect on preventing the emergence of DAP^ns” value ([4]; co-selection at ¼ MIC, VAN: both backgrounds) was “did not prevent the emergence of DAP non-susceptibility; also recorded: no effect on preventing DAP^ns” and the “susceptibility to the co-selecting agent in its co-selection group” value ([4]; over the course of 30 passages) was “no increases in LZD MIC values over WT were observed”.
For CC1(C)S[C@@H]2[C@H](NC(=O)[C@H](N)c3ccccc3)C(=O)N2[C@H]1C(=O)O [ampicillin], the “prevention of the emergence of daptomycin resistance” value [1] is given as “prevented or greatly delayed selection of daptomycin-nonsusceptible mutants”.
Work on CN(C)[C@@H]1C(O)=C(C(N)=O)C(=O)[C@@]2(O)C(O)=C3C(=O)c4c(O)cccc4[C@@](C)(O)[C@H]3C[C@@H]12 [TET, tetracycline] yielded an MIC ([4]; NRS123, passage 0, NRS123 WT) of 0.5 µg/mL (≈ 1.13 µM), an MIC [4, 5] of 0.25 µg/mL (≈ 0.563 µM) and an MIC [4, 6] of 0.5 µg/mL. It also gave an MIC [4, 7] of 0.5 µg/mL, an MIC [4, 8] of 0.25 µg/mL and an MIC [4, 9] of 0.5 µg/mL. For the same molecule, the MIC [4, 10] was 0.125 µg/mL, the MIC [4, 11] was 0.5 µg/mL and the MIC [4, 12] was 0.5 µg/mL. For the same molecule, the MIC [4, 13] was 0.25 µg/mL, the MIC [4, 14] was 0.125 µg/mL (≈ 0.281 µM) and the MIC [4, 15] was 0.5 µg/mL. The MIC [4, 16] was 0.25 µg/mL, the MIC [4, 17] was 0.5 µg/mL and the MIC [4, 18] was 0.25 µg/mL. It also gave an MIC [4, 19] of 0.5 µg/mL, an MIC [4, 20] of 0.5 µg/mL and an MIC [4, 21] of 0.125 µg/mL. For the same molecule, the MIC [4, 22] was 0.25 µg/mL, the MIC [4, 23] was 0.25 µg/mL (≈ 0.563 µM) and the MIC [4, 24] was 0.125 µg/mL. For the same molecule, the MIC [4, 25] was 0.25 µg/mL, the MIC [4, 26] was 0.5 µg/mL and the MIC [4, 27] was 0.25 µg/mL. The MIC [4, 28] was 0.25 µg/mL, the MIC [4, 29] was 0.25 µg/mL and the MIC [4, 30] was 0.25 µg/mL. For the same molecule, the MIC [4, 31] was 0.25 µg/mL, the MIC [4, 32] was 0.125 µg/mL (≈ 0.281 µM) and the MIC [4, 33] was 0.125 µg/mL. The MIC [4, 34] was 0.25 µg/mL, the MIC [4, 35] was 0.25 µg/mL and the MIC [4, 36] was 0.25 µg/mL. For the same molecule, the MIC [4, 37] was 0.25 µg/mL, the MIC [4, 38] was 0.25 µg/mL and the MIC [4, 39] was 0.125 µg/mL. It also gave an MIC [4, 40] of 0.25 µg/mL, an MIC [4, 41] of 0.125 µg/mL (≈ 0.281 µM) and an MIC [4, 42] of 0.125 µg/mL. It also gave an MIC [4, 43] of 0.25 µg/mL, an MIC [4, 44] of 0.25 µg/mL and an MIC [4, 45] of 0.25 µg/mL. The MIC [4, 46] was 0.25 µg/mL, the MIC [4, 47] was 0.25 µg/mL and the MIC [4, 48] was 0.125 µg/mL. For the same molecule, the MIC [4, 49] was 0.25 µg/mL, the MIC [4, 50] was 0.25 µg/mL (≈ 0.563 µM) and the MIC [4, 51] was 0.25 µg/mL. It also gave an MIC [4, 52] of 0.25 µg/mL, an MIC [4, 53] of 0.5 µg/mL and an MIC [4, 54] of 0.5 µg/mL. It also gave an MIC [4, 55] of 0.5 µg/mL, an MIC [4, 56] of 0.5 µg/mL and an MIC [4, 57] of 0.25 µg/mL. For the same molecule, the MIC [4, 58] was 0.5 µg/mL and the MIC [4, 59] was over 1 µg/mL.
